The record followed here is BindingDB's records for doi:10.1021/acsmedchemlett.0c00444 (Virginia Commonwealth University, 2020).

As a reminder, the EC50 is the concentration at which the effect is half-maximal.

The nature of the assay: Inhibition of HIV1 3B reverse transcriptase infected in human GHOST CXCR4 cells assessed as reduction in viral replication incubated for 60 to 90 mins in presence of DTT and TTP by liquid scintillation counter.
`CNC(=O)COCC(=O)NCCCCNC(=O)COCC(=O)NC[C@H]1CC[C@H](/N=C(\NC2CCCCC2)SCC2=CSC3=NC(C)(C)CN23)CC1`: the 50% effective concentration (EC50) stood at 144000 nM.
On to `CC1(C)CN2C(CS/C(N)=N\[C@H]3CC[C@H](CNC(=O)COCC(=O)NCCCCNC(=O)COCC(=O)N[C@@H]4CC[C@@]5(O)[C@H]6Cc7ccc(O)c8c7[C@@]5(CCN6CC5CC5)[C@H]4O8)CC3)=CSC2=N1`, for which the EC50 came out at 960 nM.
The value for `CC1(C)CN2C(CS/C(=N\C3CCCCC3)NC3CCCCC3)=CSC2=N1` [(6,6-dimethyl-5,6-dihydroimidazo[2,1-b][1,3]thiazol-3-yl)methyl N,N'-dicyclohexylimidothiocarbamate] was 22 nM.
